According to patent publication US20070059299A1, “S-adenosyl methionine decarboxylase inhibition for the treatment of a herpes simplex virus infection” (Institut National de la Sante et de la Recherche Medicale …, priority 2002, published 2007):
Like-named read-outs stand apart in the source and are kept apart here.

Tests used:
[1] = target: T1, SAMDC (Rattus norvegicus, UniProt P17708); assay: SAMDC inhibition in vitro; format: biochemical; conditions: inhibitor at 0.1 μM
T1 construct: according to the procedure described in Pegg A E, Poso H, S-adenosylmethionine decarboxylase (rat liver), Methods Enzymol; 1983;94: 234-239; from tissue
T1 sequence (P17708 68-333 limits assumed): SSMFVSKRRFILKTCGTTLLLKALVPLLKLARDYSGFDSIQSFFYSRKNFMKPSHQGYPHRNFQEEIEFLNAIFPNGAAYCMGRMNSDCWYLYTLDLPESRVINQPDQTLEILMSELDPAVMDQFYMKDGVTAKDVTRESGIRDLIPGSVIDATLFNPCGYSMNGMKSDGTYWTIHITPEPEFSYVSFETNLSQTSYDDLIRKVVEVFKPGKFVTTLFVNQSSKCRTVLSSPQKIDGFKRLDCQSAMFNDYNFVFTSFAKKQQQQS
T1 sequence (P17708 1-67 limits assumed): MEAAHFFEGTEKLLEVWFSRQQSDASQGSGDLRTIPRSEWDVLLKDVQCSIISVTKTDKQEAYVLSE
Text: The results of SAMDC inhibition in vitro and of HSV replications in cellulo for MGBG and Compounds (I) to (III) disclosed above are reported in the table below.

[2] = tested on: HSV-1 macroplaque strain (MP); format: cell-based; conditions: 50 μM spermine added with 100 μM MGBG and virus, or 2 h later
Procedure: HEp2 cells were grown as monolayers in Eagle's minimum essential medium (E-MEM) supplemented or not with 5% heat-inactivated foetal calf serum (FCS) and supplemented with 100 U/ml penicillin and 100 U/ml streptomycin. The cells were maintained at 37° C. under 5% CO2. The HSV-1 macroplaque strain (MP), obtained from B. Jacquemont (Lyon, France), was a gift of B. Roizman (Chicago, Ill., U.S.A.), and was used throughout this study. Viruses were grown in HEp2 cells.
HEp2 cells were grown in 6-well plates (˜10^6 cells/well) and infected just before confluence with a multiplicity of infection (m.o.i.) of 0.5 plaque-forming units (PFU) per cell in E-MEM in absence of FCS, except for some experiments. After adsorption of the virus for 1 h at 33° C. under 5% CO2, the medium containing the virus suspension was removed and the cells were washed with E-MEM, then incubated in E-MEM without FCS at 37° C. for different periods of times until harvest. Times post-infection (p.i.) were calculated from the time of addition of the virus suspension. HEp2 cells were exposed to MGBG treatment for different times. When cells were pre-treated with MGBG prior infection, MGBG was added to cell medium 6 h or 24 h prior infection until harvest. In non pre-treated cells, MGBG was added simultaneously with virus suspension, or 2 h, 4 h or 6 h latter. When cells were treated for more than 24 h, medium was replaced every 24 h with fresh medium containing the same concentration of MGBG.
Accordingly, the effect of inactivation of enzymes involved in polyamine biosynthesis upon HSV-1 infection inhibition was assessed. The HSV-1 MP strain was used throughout this study for its ability to induce the formation of large syncytia from infected cells. Therefore, it was possible to easily and quickly investigate the inhibition of viral replication at the level of syncytia formation.
To investigate the effect of the concentration of MGBG on viral infection, HEp2 cells were infected with 0.5 PFU of HSV-1 per cell in FCS free medium in which 10 μM to 300 μM MGBG was added from the adsorption step of the virus until the end of the experiment. After 24 h of infection, the formation of syncytia was observed, and the number of syncytia was estimated by counting using the optical microscope.
HEp2 cell were pre-treated with MGBG by incubation in FCS free medium containing 10 to 300 μM MGBG 6h to 24 h before infection. Then cells were infected as described above and MGBG was maintained in the medium until the end of the experiment.

[3] = tested on: HSV-1 proteins, mRNA and DNA; assay: Levels of viral proteins (Western blot), mRNA and DNA (slot blot) in infected HEp2 cells; format: cell-based; conditions: 6 h pre-treatment with 100 μM MGBG, then MGBG and 50 μM spermine, 24 h p.i.
Procedure: Total RNA and DNA from control mock-infected and infected HEp2 cells were purified using Qiagen RNA/DNA kit. RNA were submitted to DNAse/RNAse free digestion (1.5 unit/μg RNA) and DNA were submitted to RNAse A digestion (10 units/μg). Quantitation of SAMDC mRNA, of viral mRNAs and viral DNA present in each sample was determined by slot blot analysis using the 1250 bp PstI/PvuII fragment of pSAMr1 plasmid (Pajunen et al., 1988). The 746 bp SalI-EcoNI fragment of pSG28 and the 1308 bp MluI fragment of pSG124 plasmids (Goldin et al., 1981) were labelled with [^32P] and used as probes to detect the immediate early ICP27 and the early UL42 mRNAs respectively. Us11 late mRNA was detected with [^32P]-labelled probe composed of the 230 bp XhoI fragment of pHSV-Us12 plasmid (Diaz et al., 1996). Viral DNA was detected using the ICP27 specific DNA probe.
Mock-infected and HSV-1-infected HEp2 cells were washed three times with ice cold phosphate-buffered saline (PBS) (130 mM NaCl, 4 mM Na2HPO4.2H2O, 1.5 mM KH2PO4), scrapped into PBS, and collected by centrifugation at 500×g. Cells were resuspended in Laemmli buffer (Laemmli, 1970). Proteins were resolved by polyacrylamide gel electrophoresis and transferred by electroblotting onto a polyvinylidene difluoride membrane (Immobilon-P; Millipore). Viral proteins were analysed by Western blots (10 μg aliquots) using a 50 fold dilution of either a rabbit polyclonal anti-ICP27 antibody, or a rabbit polyclonal anti-Us11 antibody (Diaz et al., 1993), or a mouse monoclonal anti-UL42 antibody diluted 50 fold.
Cells were pre-treated with 10 to 200 μM of MGBG, then infected with HSV-1 in the presence of the same concentrations of MGBG. Proteins, RNA and DNA were extracted from cells infected for 24 h. Viral proteins were detected by Western blot using specific antibodies, whereas viral mRNA and DNA levels were assayed by slot blot analysis.

[4] = tested on: acyclovir-susceptible reference strain SC16; assay: Antiviral susceptibility testing by ELISA on HEp-2 cells, strain SC16; format: cell-based, HSV 1
Procedure: (§1) Three HSV 1 reference strains were tested : SC16 (acyclovir-susceptible reference strain; (Hill et al., 1975)), DM21 (acyclovir-resistant reference strain derived from SC16; (Efstathiou et al., 1989)) and TP 2.5 (foscarnet-resistant reference strain derived from SC16; (Larder and Darby, 1985)). Antiviral assays were performed in duplicate on HEp-2 cells seeded in 96 wells microplates. Dilutions of virus and drugs were prepared in E-MEM without FCS. Cells were first treated for 24 hours with MGBG using a series of 6 twofold serial dilutions from 12.5 to 400 μM. Infection was then achieved with 5 tenfold dilutions of cell-associated virus (10^−1 to 10^−5). Each dilution was incubated with a series of 6 concentrations of each antiviral drug (from 12.5 to 400 μM in twofold dilutions for MGBG, from 0.16 to 500 μM in fivefold dilutions for acyclovir and from 31 to 1000 μM in twofold dilutions for foscarnet). […] After incubation at 36° C. with 5% CO2 for 24 hours post-infection, medium was replaced with freshly prepared dilutions of MGBG. Viral multiplication was checked 24 hours afterwards by an ELISA (Morfin et al., 1999), using a rabbit monoclonal anti-HSV 1 antibody (BO 114, Dako) and a protein A peroxidase-conjugated (BioRad). The substrate, 2,2′-azino-di(3-ethyl-benzthiazoline) sulfonic acid (ABTS) diluted in ABTS buffer (Boehringer, Mannheim), was added to each well. After 30 min at room temperature, the plates were briefly agitated and optical densities were read at 405 nm with a multichannel spectrophotomoter (Titertek-Multiskan). Optical density values were used with the Biolise program (Life Sciences International) to calculate the concentration of the drug causing a 50% inhibition of viral replication (IC50) by logistic regression analysis.
(§2) The capacity of MGBG to preclude infection of three HSV-1 acyclovir and/or foscarnet resistant strains was tested. […] The ED values were determined.

[5] = tested on: acyclovir-resistant reference strain DM21; assay: Antiviral susceptibility testing by ELISA on HEp-2 cells, strain DM21; format: cell-based, HSV 1; conditions: for IC50: HEp-2 cells, ELISA, median of at least three assays, drugs diluted in μM, read-out: Susceptibility of strain DM21 (concentration causing 50% inhibition of viral replication, IC50), median
Procedure: as §1
The capacity of MGBG to preclude infection of three HSV-1 acyclovir and/or foscarnet resistant strains was tested. The reference strains used in this study were the SC16 acyclovir-susceptible reference strain, the DM21 acyclovir-resistant reference strain derived from SC16 and the TP 2.5 foscarnet-resistant reference strain derived from SC16 (Efstathiou et al., 1989; Hill et al., 1975; Larder and Darby, 1985). In each experiment, dose response curves were constructed for […], for acyclovir, and for MGBG. The ED values were determined.

[6] = tested on: foscarnet-resistant reference strain TP 2.5; assay: Antiviral susceptibility testing by ELISA on HEp-2 cells, strain TP 2.5; format: cell-based, HSV 1; conditions: median of at least three assays, drugs diluted in μM, read-out: Susceptibility of strain TP2.5 (concentration causing 50% inhibition of viral replication, IC50), median
Procedure: as §1, §2

[7] = tested on: HSV; assay: HSV replication in cellulo; format: cell-based; conditions: read-out: HSV inhibition in cellulo IC50
Procedure: as §1

| SMILES | IC50 [5] | IC50 [6] | % inhibition in vitro (0.1 μM) [1] | IC50 [7] | further results |
| --- | --- | --- | --- | --- | --- |
| CC(NNC(=N)N)c1cccc(C(=N)N)n1 (centres unmarked) [Compound (III)] | – | – | – | – | inhibition at 0.1 µM [1]: 97% |
| NCCCNCCCCNCCCN [spermine] | – | – | – | – | MGBG inhibition of viral infection on addition of exogenous spermine [2]: totally prevented; MGBG-induced viral inhibition in the presence of exogenous spermine [3]: abolished the MGBG-induced viral inhibition |
| Nc1nc2c(ncn2COCCO)c(=O)[nH]1 [Acyclovir, acyclovir] | > 500 µM | 215 µM | – | – | IC50 ([4]; HEp-2 cells, ELISA, median of at least three assays, drugs diluted in μM, read-out: Susceptibility of strain SC16 (concentration causing 50% inhibition of viral replication, IC50), median): 28 µM |
| N=C(N)c1ccc(/N=N/Nc2ccc(C(=N)N)cc2)cc1 [Compound (I), Berenil] | – | – | 47% | 70 µM | – |
| O=C(O)P(=O)(O)O [Foscarnet, foscarnet] | 148 µM | > 1000 µM | – | – | IC50 ([4]; HEp-2, read-out: Susceptibility of strain SC16 (concentration causing 50% inhibition of viral replication, IC50), median): 224 µM; decreased IC50 on acyclovir-resistant strains versus acyclovir-susceptible strain ([5]; compared with SC16): 34% |
| N=C(N)c1cccc2c1CC/C2=N\N=C(N)N [Compound (II), SAM486A] | – | – | 97% | 47 µM | – |
